Laboratory results reported in US20260103461A1, “ESTROGEN RECEPTOR MODULATORS AND USES THEREOF” (Olema Pharmaceuticals, Inc., priority 2022, published 2026).

What follows are compounds tested against T1, estrogen receptor (Homo sapiens, UniProt P03372) (assay: AP (alkaline phosphatase) assay in ECC-1 cells, agonist mode and antagonist mode). Settings: 3 days, absence of E2 (agonist mode) or 500 pM E2 (antagonist mode), AP activity normalized to 500 pM E2 alone.
T1 construct: endogenous in cells; host or cells: ECC-1 cells
T1 sequence (P03372 1-595): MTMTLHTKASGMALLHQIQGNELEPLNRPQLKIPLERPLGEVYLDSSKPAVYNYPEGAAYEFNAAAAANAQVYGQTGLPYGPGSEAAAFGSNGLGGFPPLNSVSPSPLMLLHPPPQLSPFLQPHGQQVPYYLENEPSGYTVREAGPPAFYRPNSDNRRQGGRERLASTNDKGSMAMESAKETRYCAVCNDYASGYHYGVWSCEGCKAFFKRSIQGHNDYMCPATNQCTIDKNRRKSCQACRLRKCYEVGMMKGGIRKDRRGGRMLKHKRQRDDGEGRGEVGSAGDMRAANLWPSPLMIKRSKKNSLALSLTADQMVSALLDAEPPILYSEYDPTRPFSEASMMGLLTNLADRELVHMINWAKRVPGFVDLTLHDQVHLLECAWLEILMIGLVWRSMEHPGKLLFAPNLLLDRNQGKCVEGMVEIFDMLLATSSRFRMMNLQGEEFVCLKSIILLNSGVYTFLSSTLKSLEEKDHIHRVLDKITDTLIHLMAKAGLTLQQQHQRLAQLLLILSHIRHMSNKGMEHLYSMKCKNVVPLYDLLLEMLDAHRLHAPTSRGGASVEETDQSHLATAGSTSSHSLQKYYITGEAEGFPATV
Type: cell-based
Method: ECC-1 cells were trypsinized and resuspended in hormone-depleted media and plated at a density of 15 k cells per well into a 96-well plate for at least 4 hours. Cells were treated with test compounds in the absence of E2 (for agonist mode) or in the presence of 500 pM E2 (for antagonist mode) for 3 days and plates were subsequently frozen at −80° C. Thawed plates were incubated with a chromogenic substrate of AP, p-nitrophenyl phosphate (Thermo Fisher Scientific), for 40 minutes at 42° C., and absorbances were read at 405 nm. AP activity was normalized to the activity of 500 pM E2 alone.
The compound numbers correspond to the compound numbers of Table 1 and 2. Compounds having an activity designated as “+” provided estrogen receptor agonism having (i) at least 80% increase in the E2-normalized signal in the AP assay (agonist mode) and (ii) no more than 80% reduction in the E2-normalized signal in the AP assay (antagonist mode). Compounds having an activity designated as “++” provided estrogen receptor antagonism having (i) between 10% and 80% increase in the E2-normalized signal in the AP assay (agonist mode) and (ii) between 10% and 80% reduction in the E2-normalized signal in the AP assay (antagonist mode).

| SMILES | Activity (estrogen receptor modulation, agonism and antagonism) |
| --- | --- |
| CCCN1CC(Oc2ccc([C@@H]3c4[nH]c5ccccc5c4C[C@@H](C)N3CC(C)(C)F)s2)C1 [Example I-1, 3-({5-[(1S,3R)-2-(2-fluoro-2-methylpropyl)-3-methyl-1H,2H,3H,4H,9H-pyrido[3,4-b]indol-1-yl]thiophen-2-yl}oxy)-1-propylazetidine] | ++ (estrogen receptor antagonism having (i) between 10% and 80% increase in the E2-normalized signal in the AP assay (agonist mode) and (ii) between 10% and 80% reduction in the E2-normalized signal in the AP assay (antagonist mode)) |
| C[C@@H]1Cc2c([nH]c3ccccc23)[C@@H](c2ccc(OC3CN(CCCF)C3)s2)N1CC(C)(C)F [Example I-2, 3-({5-[(1S,3R)-2-(2-fluoro-2-methylpropyl)-3-methyl-1H,2H,3H,4H,9H-pyrido[3,4-b]indol-1-yl]thiophen-2-yl}oxy)-1-(3-fluoropropyl)azetidine] | ++ (estrogen receptor antagonism having (i) between 10% and 80% increase in the E2-normalized signal in the AP assay (agonist mode) and (ii) between 10% and 80% reduction in the E2-normalized signal in the AP assay (antagonist mode)) |
| CCCN1CC(Oc2ncc([C@@H]3c4[nH]c5ccccc5c4C[C@@H](C)N3CC(C)(C)F)s2)C1 [Example I-3, 5-[(1S,3R)-2-(2-fluoro-2-methylpropyl)-3-methyl-1H,2H,3H,4H,9H-pyrido[3,4-b]indol-1-yl]-2-[(1-propylazetidin-3-yl)oxy]-1,3-thiazole] | ++ (estrogen receptor antagonism having (i) between 10% and 80% increase in the E2-normalized signal in the AP assay (agonist mode) and (ii) between 10% and 80% reduction in the E2-normalized signal in the AP assay (antagonist mode)) |
| C[C@@H]1Cc2c([nH]c3ccccc23)[C@@H](c2ccc(O[C@H]3CCN(CCCF)C3)s2)N1CC(C)(C)F [Example I-4, (3S)-3-({5-[(1S,3R)-2-(2-fluoro-2-methylpropyl)-3-methyl-1H,2H,3H,4H,9H-pyrido[3,4-b]indol-1-yl]thiophen-2-yl}oxy)-1-(3-fluoropropyl)pyrrolidine] | +++ (estrogen receptor antagonism (i) with pIC50 greater than 7.5 and at least a 10% reduction in the E2-normalized signal in the AP assay (antagonist mode); and no more than 10% increase in E2-normalized signal in the AP assay (agonist mode)) |
| C[C@@H]1Cc2c([nH]c3ccccc23)[C@@H](c2ccc(O[C@@H]3CCN(CCCF)C3)s2)N1CC(C)(C)F [Example I-5, (3R)-3-({5-[(1S,3R)-2-(2-fluoro-2-methylpropyl)-3-methyl-1H,2H,3H,4H,9H-pyrido[3,4-b]indol-1-yl]thiophen-2-yl}oxy)-1-(3-fluoropropyl)pyrrolidine] | + (estrogen receptor agonism having (i) at least 80% increase in the E2-normalized signal in the AP assay (agonist mode) and (ii) no more than 80% reduction in the E2-normalized signal in the AP assay (antagonist mode)) |
| C[C@@H]1Cc2c([nH]c3ccccc23)[C@@H](c2ncc(O[C@H]3CCN(CCCF)C3)s2)N1CC(C)(C)F [Example I-6, 2-[(1S,3R)-2-(2-fluoro-2-methylpropyl)-3-methyl-1H,2H,3H,4H,9H-pyrido[3,4-b]indol-1-yl]-5-{[(3S)-1-(3-fluoropropyl)pyrrolidin-3-yl]oxy}-1,3-thiazole] | ++ (estrogen receptor antagonism having (i) between 10% and 80% increase in the E2-normalized signal in the AP assay (agonist mode) and (ii) between 10% and 80% reduction in the E2-normalized signal in the AP assay (antagonist mode)) |
| C[C@@H]1Cc2c([nH]c3ccccc23)[C@@H](c2ccc(O[C@H]3CCN(CCC(F)F)C3)s2)N1CC(C)(C)F [Example I-8, (1S,3R)-1-(5-(((S)-1-(3,3-difluoropropyl)pyrrolidin-3-yl)oxy)thiophen-2-yl)-2-(2-fluoro-2-methylpropyl)-3-methyl-2,3,4,9-tetrahydro-1H-pyrido[3,4-b]indole] | ++ (estrogen receptor antagonism having (i) between 10% and 80% increase in the E2-normalized signal in the AP assay (agonist mode) and (ii) between 10% and 80% reduction in the E2-normalized signal in the AP assay (antagonist mode)) |
| C[C@@H]1Cc2c([nH]c3ccccc23)[C@@H](c2ncc(OC3CN(CCCF)C3)s2)N1CC(C)(C)F [Example I-9, 2-[(1S,3R)-2-(2-fluoro-2-methyl-propyl)-3-methyl-1,3,4,9-tetrahydropyrido[3,4-b]indol-1-yl]-5-[1-(3-fluoropropyl)azetidin-3-yl]oxy-thiazole] | ++ (estrogen receptor antagonism having (i) between 10% and 80% increase in the E2-normalized signal in the AP assay (agonist mode) and (ii) between 10% and 80% reduction in the E2-normalized signal in the AP assay (antagonist mode)) |
| CCCN1CC[C@@H](Oc2ccc([C@@H]3c4[nH]c5ccccc5c4C[C@@H](C)N3CC(C)(C)F)s2)C1 [Example I-10, (1S,3R)-2-(2-fluoro-2-methyl-propyl)-3-methyl-1-[5-[(3R)-1-propylpyrrolidin-3-yl]oxy-2-thienyl]-1,3,4,9-tetrahydropyrido[3,4-b]indole] | + (estrogen receptor agonism having (i) at least 80% increase in the E2-normalized signal in the AP assay (agonist mode) and (ii) no more than 80% reduction in the E2-normalized signal in the AP assay (antagonist mode)) |
| C[C@@H]1Cc2c([nH]c3ccccc23)[C@@H](c2ncc(O[C@@H]3CCN(CCCF)C3)s2)N1CC(C)(C)F [Example I-11, 2-[(1S,3R)-2-(2-fluoro-2-methyl-propyl)-3-methyl-1,3,4,9-tetrahydropyrido[3,4-b]indol-1-yl]-5-[(3R)-1-(3-fluoropropyl)pyrrolidin-3-yl]oxy-thiazole] | ++ (estrogen receptor antagonism having (i) between 10% and 80% increase in the E2-normalized signal in the AP assay (agonist mode) and (ii) between 10% and 80% reduction in the E2-normalized signal in the AP assay (antagonist mode)) |
| C[C@@H]1Cc2c([nH]c3ccccc23)[C@@H](c2ccc(OC3CN(CCCF)C3)s2)N1CC(F)(F)CO [Example I-12, 2,2-difluoro-3-[(1S,3R)-1-[5-[1-(3-fluoropropyl)azetidin-3-yl]oxy-2-thienyl]-3-methyl-1,3,4,9-tetrahydropyrido[3,4-b]indol-2-yl]propan-1-ol] | +++ (estrogen receptor antagonism (i) with pIC50 greater than 7.5 and at least a 10% reduction in the E2-normalized signal in the AP assay (antagonist mode); and no more than 10% increase in E2-normalized signal in the AP assay (agonist mode)) |
| C[C@@H]1Cc2c([nH]c3ccccc23)[C@@H](c2ccc(O[C@@H]3CCN(CCCF)C3)s2)N1CC(F)(F)CO [Example I-13, 2,2-difluoro-3-[(1S,3R)-1-[5-[(3R)-1-(3-fluoropropyl)pyrrolidin-3-yl]oxy-2-thienyl]-3-methyl-1,3,4,9-tetrahydropyrido[3,4-b]indol-2-yl]propan-1-ol] | +++ (estrogen receptor antagonism (i) with pIC50 greater than 7.5 and at least a 10% reduction in the E2-normalized signal in the AP assay (antagonist mode); and no more than 10% increase in E2-normalized signal in the AP assay (agonist mode)) |
| CCN1CC[C@@H](Oc2ccc([C@@H]3c4[nH]c5ccccc5c4C[C@@H](C)N3CC(C)(C)F)s2)C1 [Example I-14, (1S,3R)-1-[5-[(3R)-1-ethylpyrrolidin-3-yl]oxy-2-thienyl]-2-(2-fluoro-2-methyl-propyl)-3-methyl-1,3,4,9-tetrahydropyrido[3,4-b]indole] | + (estrogen receptor agonism having (i) at least 80% increase in the E2-normalized signal in the AP assay (agonist mode) and (ii) no more than 80% reduction in the E2-normalized signal in the AP assay (antagonist mode)) |
| C[C@@H]1Cc2c([nH]c3ccccc23)[C@@H](c2ccc(O[C@@H]3CCN(CCC(F)F)C3)s2)N1CC(C)(C)F [Example I-15, (1S,3R)-1-[5-[(3R)-1-(3,3-difluoropropyl)pyrrolidin-3-yl]oxy-2-thienyl]-2-(2-fluoro-2-methyl-propyl)-3-methyl-1,3,4,9-tetrahydropyrido[3,4-b]indole] | + (estrogen receptor agonism having (i) at least 80% increase in the E2-normalized signal in the AP assay (agonist mode) and (ii) no more than 80% reduction in the E2-normalized signal in the AP assay (antagonist mode)) |
